Data set [1] relates to calcium oxalate stone burden in D. melanogaster fed patient urine. The data set is described as follows: Patient derived urine based calcium oxalate stone induction in D. melanogaster. It is filed as in vivo, Drosophila melanogaster. On the procedure: In addition, effect of arbutin on patient derived urine based calcium oxalate stone induction in D. melanogaster was assessed. Urine samples were collected from recurrent calcium oxalate stone forming patients (n=10 patients) and centrifuged at 2500 rpm. One milliter aliquots of supernatant were prepared and stored at −80° C. for further analysis. Ten milliters of standard medium was prepared and thoroughly mixed with 1mL of patient urine, this was separated into two individual narrow vials (5 mL per vial). Approximately 20 newly eclosed flies were added to each vial. A glass coverslip (18×18 mm) was suspended from the cotton vial plug to collect fecal matter. […] Stone burden on each coverslip was quantified via the aforementioned birefringence assay and results were expressed as mean±standard error of mean (SEM). Percentage stone burden were analyzed using one way analysis of variance (ANOVA), (Prism 6, GraphPad Software, Inc., San Diego, Calif., USA) (FIG. 3e).
D. melanogaster incubated in this patient urine based model generated calculi in the same manner as with fly food supplemented with sodium oxalate. […] Various pH's were evaluated in order to recapitulate the pH in human urine at the kidney and bladder (pH 4-6) with a greater reduction in calculi formation observed at pH 7-8 (FIG. 3f, * denotes p<0.05, two-way ANOVA, Scheffe a correction).

The subject of data set [2] is calcium oxalate stone formation in D. melanogaster. The data set is described as follows: Dose response relationship of arbutin and calcium oxalate stone formation (fecal excreta and dissected Malpighian tubules). It is filed as in vivo, Drosophila melanogaster. How it is done:
To quantify calcium oxalate calculi via D. melanogaster excreta birefringence assay, approximately 20 newly eclosed flies were added to each of 15 vials containing either of the lithogenic diets or standard food medium as a control. Stone forming diets were prepared according to the method discussed above. A glass coverslip (18×18 mm) was suspended from the cotton tube plug to allow for the collection of fecal matter. Following a 14-day incubation period, the coverslip was extracted from each tube and each coverslip was directly imaged by confocal microscopy under polarized light. Control experiments performed in a similar fashion with standard food media. The percent area of birefringence for each coverslip was individually analyzed and quantified using NIH ImageJ software (Particle Analysis function). In order to measure dose response relationship of arbutin and calcium oxalate stone formation, thirty milliliters of 0.5% (w/v) sodium oxalate media was prepared with […] arbutin. A 10-fold serial dilution was performed to obtain 15 ml of media per dilution. Each dilution was divided into 3 narrow fly vials to yield triplicates. Approximately 20 newly eclosed flies were added to each vial with a glass coverslip (18×18mm) suspended from the cotton via plug to collect fecal matter. After a 14-day incubation period, each coverslip was extracted and stone burden was quantified as described above to observe the dose-response relationship between arbutin concentration and percentage area of birefringence.

Data set [3] in a line: In vitro patient-urine based analysis of arbutin and calcium oxalate interactions (birefringence). Set-up: species or system human. The following applies: 1 mM arbutin, pH7/37° C., 24 hours. How it is done:
50 μl of recurrent calcium oxalate stone forming patient urine and healthy urine samples were combined with 45 μl of 20 mM 4-(2-hydroxyethyl)-1-piperazineethanesulfonic acid (HEPES) buffer (pH 7-8). 5 μl of 20 mM arbutin was added to each solution to form a 1 mM final concentration of the drug. Immediately after addition of the drug, 5 μl of each sample was spotted on a glass slide and birefringence data was imaged on confocal microscope. Each sample was incubated at 37° C. for 24 hours. 5 μl of the sample was identically collected and reimaged. The percent area of birefringence was data analysed as described above. This experiment was repeated in sodium acetate/acetic acid buffer at pH of 4 to observe the efficacy of arbutin in acidic environments. Reduction of percentage stone reduction was analysed using one way ANOVA. Control experiments were conducted using Quick Fix plus synthetic urine from Spectrum labs Cincinnati, Ohio, USA.

The conditions of data set [4]: mouse; cited from earlier work.
The test system of data set [5] is calcium oxalate calculi deposition in fecal excreta of D. melanogaster. The data set is described as follows: Drug library screening by D. melanogaster fecal excreta birefringence assay. It is filed as in vivo, Drosophila melanogaster. The following applies: 20 μM candidate compound in fly media with 0.5% (w/v) sodium oxalate; duplicates. How it is done: To quantify calcium oxalate calculi via D. melanogaster excreta birefringence assay, approximately 20 newly eclosed flies were added to each of 15 vials containing either of the lithogenic diets or standard food medium as a control. Stone forming diets were prepared according to the method discussed above. A glass coverslip (18×18 mm) was suspended from the cotton tube plug to allow for the collection of fecal matter. Following a 14-day incubation period, the coverslip was extracted from each tube and each coverslip was directly imaged by confocal microscopy under polarized light. Control experiments performed in a similar fashion with standard food media. The percent area of birefringence for each coverslip was individually analyzed and quantified using NIH ImageJ software (Particle Analysis function). […] The percentage area of birefringence was quantified and compared birefringence data from control experiments with separately prepared 0.5% sodium oxalate media with no addition of candidate compounds. […] After 7 days of incubation and ingestion of drug candidates, viability of flies was quantitated and all coverslips containing fecal excreta were analyzed for birefringence signal (FIG. 2d).

The test system of data set [6] is HEK293 cells. The data set is described as follows: Cytotoxicity assay (LDH release) of sodium oxalate and arbutin on human kidney epithelial cells. It is filed as cell-based. The following applies: arbutin 1 mM final with oxalate, 30 min incubation. How it is done:
(§1) To assess the cytotoxity of sodium oxalate and arbutin, human embryonic kidney epithelial cells (HEK293; ATCC® CRL-1573™), were cultured in 6-well plate containing 18 mm diameter glass coverslips to 50% confluence. Following aspiration of culture medium, the cells were incubated in a chloride-free solution containing 130 mM Potassium Gluconate, 5 mM Glucose, and 20 mM HEPES (pH 7.4) and 20 μM sodium oxalate for 30 minutes. The treated media was then removed and stored at 4° C. for further analysis. Cells were washed with Cl-free buffer and stained with 20 μM Cell tracker red CMTPX Dye (ThermoFisher Scientific) for 15 mins. Cells were triple washed with Cl-buffer and coverslips were mounted with ProLong® Gold Antifade Mountant with DAPI (ThermoFisher Scientific) without permeabilizing in preparation for confocal microscopy. Samples were imaged using a Nikon A1R+ confocal microscope (1.2 au) with a 20× dry or 60× oil-immersion lens and presented using NIS Elements software (Nikon).
The cytotoxicity of HEK293 cells in sodium oxalate media with or without arbutin was determined by quantifying […] (LDH) content liberated by damaged cells using Cytotoxicity Detection KitPLUS (LDH) (Roche) following the manufacturers instructions. Absorbance readings were taken at 492 nm using BioTek PowerWave HT Microplate Spectrophotometer.
In general terms: Release of lactate dehydrogenase indicates damage to the cell membrane.

The conditions of data set [7]: rat; cited from earlier work.
The nature of data set [8]: Preliminary NMR studies of arbutin in acidic conditions. The following applies: low pH, in solution. It is filed as physicochemical. From the text:
Arbutin has been described to readily degrade into the split components D-glucose and HQ (and conjugates) in acidic environments, an enteric coated tablet vehicle could potentially be utilised to bypass hydrolysis by stomach acids and improve oral bioavailability.

Data set [9] concerns HEK293 cells. The data set is described as follows: Cell viability of HEK cells under oxalate conditions with arbutin. It is filed as cell-based, human. On the procedure: FIG. 6a) Confocal fluorescence images of HEK293 cells stained with CellTracker Red to label the cell surface and Hoechst to label the nuclei. HEK293 cells were treated with 20 μM sodium oxalate for 30 mins. Birefringence signal was observed within HEK293 cells (white signal). FIG. 6b) Activity of LDH released from HEK293 cells after 30 min incubation with oxalate in the presence or absence of arbutin. FIG. 6c) Cell viability in arbutin treated HEK293 and PC3MLN4 cells over a 3 day period. Green line represents control normalized to 100% at that same timepoint. *** denotes p<0.05, two way ANOVA; Scheffe a correction.
as §1, with “Following aspiration of culture medium, the cells were incubated in a chloride-free solution containing 130 mM Potassium Gluconate, 5 mM Glucose, and 20 mM HEPES (pH 7.4) and 20 μM sodium oxalate for 30 minutes.” left out

For data set [10] the following is noted: cited from earlier work.
For data set [11] the following is noted: in vitro or in vivo studies; cited from earlier work.

Like-named read-outs stand apart in the source and are kept apart here.

Regarding `OCC1OC(Oc2ccc(O)cc2)C(O)C(O)C1O` [arbutin, hydroquinone β-D-glucopyranoside], in data set [1] (1 mM final concentration in fly media with patient urine, regardless of pH), the “stone burden via fecal excreta assay in comparison with citrate” value is given as “significant decrease in stone burden”. In [1] (1 mM in fly media with patient urine, various pHs), the “pH with greater reduction in calculi formation” value is recorded as 7-8 pH. Further, the “calculi content in MTs” value in data set [2] (32 μM and 512 μM arbutin treatment) was “decreases in calculi content in MTs”. For the same compound, the “arbutin concentration at which calculi content in fecal excreta significantly decreased” value in data set [2] (0.5% (w/v) sodium oxalate media, 14-day incubation) is above 64 µM. Besides, the half-inhibitory concentration (IC50) (commonly the point on the concentration scale where inhibition reaches its midpoint) in data set [2] (Drosophila melanogaster, 336 h, 0.5% (w/v) sodium oxalate media, 14-day incubation, read-out: calculated IC50, calculi content deposited in fecal excreta) is 40 µM. Also, the “calculi deposits in dissected MTs compared to controls” value in [2] (arbutin at 1 mM in fly media+0.05% sodium oxalate, controls fly media+0.5% oxalate±DMSO) is reported as “near abrogation of calculi deposits”. The “lowest concentration with anti-lithogenic abilities” value in [2] (fly media supplemented with sodium oxalate (0.5%)) is 64 µM. Besides, in data set [3], the “difference in birefringence events in control, healthy urine samples” value is “not significant”. Moreover, the “birefringence events in nephrolithiasis patient urine samples” value in data set [3] (n=3) is “significant reduction in birefringence events”. The “acute and chronic toxicity by oral dosing” value in data set [4] is “low risk of acute and chronic toxicity”; in [7], “low risk of acute and chronic toxicity”. The “anti-lithogenic activity in library screen (calculi deposition in fecal excreta)” value in data set [5] is on record as “consistently exhibited anti-lithogenic activity”. For the same compound, the “LDH activity compared to arbutin treatment alone” value in the data set with HEK293 cells [6] is reported as “no impact”. Also, in data set [8], the “stability in acidic conditions (NMR)” value was “stable”. Also, the “cell viability compared to arbutin treatment alone” value in the data set on HEK293 cells [9] (arbutin 1 mM final with oxalate, HEK cells) was “no impact”. In addition, the “effect on oxalate induced loss of cell viability” value in the data set on HEK293 cells [9] (arbutin 1 mM final, HEK cells under 0.1% calcium oxalate conditions) was “ameliorated this effect”. The “administered arbutin dose retrieved in the urine as HQ conjugates” value in data set [10] (human, 4 hrs following an oral dose) is “approximately 70%”. In [10] (oral), the “absorption from the GI tract” value was “heavily absorbed from the GI tract”. Besides, the genotoxic effects entry in [11] is on record as “No genotoxic effects”.

(Values after patent publication US20210085703A1, “Compositions and Methods for Preventing or Treating Nephrolithiasis” (SP Nutraceuticals, Inc., priority 2017, published 2021).)
